Series [1] has as its system breast cancer cells MDA-MB-231. Set-up: method as in doi:10.3390/scipharm91030042. Particulars: cited from earlier work.
Series [2] relates to non-small-cell lung cancer cells NCI-H358. Further details: method as in doi:10.3390/scipharm91030042. Particulars: cited from earlier work.
For series [3], the system named is non-small-cell lung cancer cells A549. Set-up: method as in doi:10.3390/scipharm91030042. Particulars: cited from earlier work.
Series [4] concerns SiHa cells, a cervical squamous cell carcinoma line. Further details: method as in PMID 37935292. Conditions: cited from earlier work.
Series [5] deals with breast cancer cells MDA-MB-468. Set-up: method as in doi:10.3390/scipharm91030042. Conditions: cited from earlier work.
Series [6] concerns NIH/3T3 (murine fibroblast) cells. Briefly: MTT cell viability assay in NIH/3T3 cells. The class given is cell-based. The method, then: (§1) The HeLa (cervical cancer) and NIH/3T3 (murine fibroblast) cells were seeded in 96-well plates at a density of 3 × 10^4 cells/well in DMEM (Dulbecco’s Modified Eagle Medium; Gibco, Thermo Fisher, Paisley, UK), supplemented with 10% fetal bovine serum (FBS; Cultilab®, São Paulo, Brazil) and 1% penicillin/streptomycin (Pen/Strep—Cultilab®, Campinas, Brazil). The cells were incubated at 37 °C in a humidified atmosphere containing 5% CO2 for 24 h. After incubation, the cells were treated with EUD and EUA extracts at concentrations ranging from 3.5 µg/mL to 250 µg/mL and incubated for an additional 48 h. The cell lines were kindly donated by Cemib (Multidisciplinary Center for Biological Research in the Laboratory Animal Science Area, Campinas, Brazil)—Unicamp/SP.
(§2) One row of wells was treated only with the vehicle (culture medium) to serve as the negative control, representing 100% cell viability. Doxorubicin (Libbs®, São Paulo, Brazil) and carboplatin (Blau Farmacêutica®, São Paulo, Brazil) were used as the positive controls.
Following treatment, the medium was removed, and 100 µL/well of MTT reagent (5 mg/mL; 3-[4,5-dimethylthiazol-2-yl]-2,5-diphenyltetrazolium bromide; Invitrogen, Thermo Fisher, Waltham, MA, USA) was added. […] Absorbance was measured at 570 nm using an Epoch-Biotek ELISA microplate spectrophotometer (BioTek Instruments, Winooski, VT, USA). […]
On the technique in general: Tetrazolium dyes change colour on reduction, which living cells bring about.

Series [7] has as its system HeLa (cervical cancer) cells. As to the kind of experiment: MTT cell viability assay in HeLa cells. In kind it is cell-based, human. The method, then: as §1, §2
Following treatment, the medium was removed, and 100 µL/well of MTT reagent (5 mg/mL; 3-[4,5-dimethylthiazol-2-yl]-2,5-diphenyltetrazolium bromide; Invitrogen, Thermo Fisher, Waltham, MA, USA) was added. The plates were incubated for 4 h at 37 °C. After incubation, the resulting formazan crystals formed in viable cells were solubilized by adding 100 µL/well of DMSO (dimethyl sulfoxide; Labsynth, São Paulo, Brazil). Absorbance was measured at 570 nm using an Epoch-Biotek ELISA microplate spectrophotometer (BioTek Instruments, Winooski, VT, USA).
Statistical analysis was performed using GraphPad Prism 8.4.6 (GraphPad Software, Inc., Boston, MA, USA) via one-way ANOVA followed by Tukey’s post hoc test. Differences were considered statistically significant at p < 0.05. All the experiments were conducted in triplicate.

Series [8] has as its system HeLa cells vs NIH/3T3 cells. Briefly: Selectivity index (IC50 NIH/3T3 divided by IC50 HeLa). In kind it is cell-based. Particulars: IC50 NIH/3T3 / IC50 HeLa; SI ≥ 2 considered selective. On the procedure: The selectivity index (SI) was calculated by dividing the IC50 value of NIH/3T3 cells by the IC50 of HeLa cells. Samples with SI ≥ 2 were considered selectively cytotoxic to cancer cells.

Series [9] concerns liver (Hep-G2) cancer cells. Conditions: in vitro; cited from earlier work.
The test system of series [10] is human cervical (HeLa) cancer cells. Particulars: in vitro; cited from earlier work.
In series [11] the test system is HeLa cells. As to the kind of experiment: Cell cycle analysis by flow cytometry with PI staining. In kind it is cell-based, human. Particulars: treated at IC50, 48 h. The method, then: The HeLa cells (2 × 10^5 cells/well) were seeded in 6-well plates and incubated for 24 h. The cells were then treated with the EUD and EUA extracts and doxorubicin at their respective IC50 concentrations. The vehicle-treated cells served as the negative control. After 48 h, cells were harvested with trypsin, centrifuged, fixed in 70% ethanol, and stained with propidium iodide (PI) (Sigma-Aldrich®). The samples were incubated at 37 °C for 30 min in the dark and analyzed using a BD Accuri™ C6 Plus flow cytometer. Histograms were processed with the Cell Quest Pro software (version 5.1). Data was analyzed using two-way ANOVA in GraphPad Prism 8.4.3, with significance at p < 0.05.
(A flow cytometer gives signals particle by particle.)

The test system of series [12] is HeLa cells. Briefly: Cell migration assay (scratch assay). The class given is cell-based, human. Particulars: EUD 7.5 μg/mL, EUA 10 μg/mL, doxorubicin 0.375 μg/mL. On the procedure: The HeLa cells (70,000–80,000 cells/well) were seeded in 24-well plates with DMEM supplemented with 10% FBS and 1% Pen/Strep and incubated at 37 °C with 5% CO2 until 80% confluence. The medium was replaced with DMEM containing 0.2% FBS, and after 24 h, a scratch was made in the cell monolayer using a 1000 µL pipette tip. The cells were washed with sterile PBS, and they were treated with doxorubicin (positive control) and EUD and EUA extracts at ¼ of their IC50 values: 7.5 µg/mL (EUD), 10 µg/mL (EUA), and 0.375 µg/mL (doxorubicin).
Images were captured at 0 h (T0), 12 h (T1), 18 h (T2), and 24 h (T3) using an EVOS XL Core Imaging System microscope (10× objective). Scratch area percentages were analyzed using the ImageJ software 1.54g/Java 1.8.0_421 (32-bit), and statistical analysis was performed using one-way ANOVA with GraphPad Prism 8.4.3. All the experiments were conducted in triplicate.

In brackets after ≈: the same amount, converted by molar mass.

In the case of `O=c1oc2c(O)c(O)cc3c(=O)oc4c(O)c(O)cc1c4c23` [ellagic acid, Ellagic acid], in series [1], the “effect on proliferation of MDA-MB-231 cells” value was “inhibited the proliferation”. Besides, in series [2], the “effect on proliferation of NCI-H358 cells” value is “inhibited the proliferation”. In addition, the “effect on proliferation of A549 cells” value in series [3] is listed as “inhibited the proliferation”. In series [4], the “effect on proliferation of SiHa cells” value was “inhibit cell proliferation”. The “effect on proliferation of MDA-MB-468 cells” value in series [5] was “inhibited the proliferation”.

Turning to `N.N.O=C([O-])C1(C(=O)[O-])CCC1.[Pt+2]` [Carboplatin], the “IC50 Non-Tumor cells NIH/3T3” value in [6] (48 h treatment) stood at 38.32 µg/mL. Moreover, in series [7] (48 h treatment), the “IC50 Tumor Cells HeLa” value was determined as 52.40 µg/mL. Besides, in [7] (p < 0.05), the “concentrations with statistically significant reduction of HeLa cell viability vs negative control” value was > 25 µg/mL. The “Selectivity Index (SI)” value in [8] came to 0.73.

As to unifloratrin, in series [9], the “cytotoxicity against Hep-G2 cancer cells” value is given as “considerable cytotoxicity”. The “cytotoxicity against HeLa cancer cells” value in [10] was “considerable cytotoxicity”.

In the case of `COc1cccc2c1C(=O)c1c(O)c3c(c(O)c1C2=O)C[C@@](O)(C(=O)CO)C[C@@H]3O[C@H]1C[C@H](N)[C@H](O)[C@H](C)O1` [Doxorubicin], the “cells in SubG0 phase” value in the series on HeLa cells [11] (negative control 2.97%) came out at 44.20%. The “cells in G2/M phase” value in the series with HeLa cells [11] (negative control 7.97%) worked out at 0.245%. For the same molecule, the “cells in S phase” value in the series with HeLa cells [11] (negative control 30.55%) stood at 12.1%. Besides, the “cells in G1/G0 phase” value in the series with HeLa cells [11] (negative control 56.75%) is 42.75%. Also, the IC50 in series [6] (Mus musculus, NIH3T3, 48 h treatment, read-out: IC50 Non-Tumor cells NIH/3T3) is 2.32 µg/mL (≈ 4.27 µM); in series [7] (Homo sapiens, HeLa, 48 h treatment, read-out: IC50 Tumor Cells HeLa), 1.59 µg/mL (≈ 2.93 µM). Besides, the “free area (scratch) at T1” value in the series with HeLa cells [12] (12 h) is listed as 39.51%. The “free area (scratch) at T2” value with HeLa cells [12] (18 h) amounted to 36.49%. In addition, the “free area (scratch) at T3” value with HeLa cells [12] (24 h) was determined as 32.17%. Besides, in the series on HeLa cells [12], the “inhibition of cell migration compared to the negative control” value is recorded as “did not significantly inhibit tumor cell migration”. Further, the “Selectivity Index (SI)” value in series [8] is 1.5.

Regarding myricitrin, the “cytotoxicity against Hep-G2 cancer cells” value in series [9] is on record as “considerable cytotoxicity”. Moreover, the “cytotoxicity against HeLa cancer cells” value in [10] is “considerable cytotoxicity”.
